The results in this text go back to US20040050294A1, “Coloring material and color filter” (Dai Nippon Printing Co., Ltd., priority 1999, published 2004).

Each structure is given as a SMILES string.

The nature of this series: Solubility in solvents. Conditions: for solubility in solvents: PGMEA (methoxypropyl acetate): solvent PGMEA; for solubility in solvents: THF: solvent THF; for solubility in solvents: chloroform: solvent chloroform; for solubility in solvents: cyclohexanone: solvent cyclohexanone; for solubility in solvents: ethyl acetate: solvent ethyl acetate; for solubility in solvents: methanol: solvent methanol. Format: physicochemical.

For the molecule `CCC(C)(C)OC(=O)N/C(=C1/C(=O)N(C(=O)OC(C)(C)CC)C(c2ccc(Cl)cc2)=C1C(=O)OC)c1ccc(Cl)cc1` [compound 1], the “solubility in solvents: PGMEA (methoxypropyl acetate)” value (“solubility in solvents: PGMEA” below) is on record as 2 % by weight, the “solubility in solvents: THF” value was determined as 28.57 % by weight, the “solubility in solvents: chloroform” value is listed as 50 % by weight and the “solubility in solvents: cyclohexanone” value is given as 10 % by weight. Further, the “solubility in solvents: ethyl acetate” value was found to be 4.55 % by weight and the “solubility in solvents: methanol” value worked out at 0.2 % by weight.

Take `CCC(C)(C)OC(=O)N/C(=C1/C(=O)NC(c2ccc(Cl)cc2)=C1C(=O)OC)c1ccc(Cl)cc1` [compound 2]: the “solubility in solvents: PGMEA” value is recorded as 0.67 % by weight, the “solubility in solvents: THF” value was found to be 12.5 % by weight, the “solubility in solvents: chloroform” value was found to be 2 % by weight and the “solubility in solvents: cyclohexanone” value is 5 % by weight. The “solubility in solvents: ethyl acetate” value was 1 % by weight and the “solubility in solvents: methanol” value is 0.1 % by weight.

`CCC(C)(C)OC(=O)N1C(=O)C2=C(c3ccc(Cl)cc3)N(C(=O)OC(C)(C)CC)C(=O)C2=C1c1ccc(Cl)cc1` [DPP, N,N′-bis-tert-amyloxycarbonyl-1,4-diketo-3,6-di(4′-chlorophenyl)pyrrolo-[3,4-c]pyrrole, reference compound]: the “solubility in solvents: PGMEA” value was 5 % by weight, the “solubility in solvents: chloroform” value is reported as 10 % by weight, the “solubility in solvents: cyclohexanone” value is 10 % by weight and the “solubility in solvents: ethyl acetate” value is recorded as “not more than 1 % by weight”.
